Columns and labels:
Format in all cases: in vivo
[1] = tested on: upland rice (Oryza sp., var. Tebonnet, RICE); assay: Post-emerge test, crop safety; conditions: phytotoxicity rating 0-100 (0 no damage, 100 complete death), 14 days after application
In short: (§1)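 Compounds in acetone were track-sprayed at 187 l/ha, 15–1000 g ai/ha, onto sandy loam pots. Pre-emerge seeds were sown one day before spraying, with surface watering afterwards. Post-emerge plants were at the 2–3 leaf stage and sprayed with 0.25% v/v non-ionic surfactant. Injury was rated 0–100 at 14 days.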

[2] = tested on: field corn (Zea mays L., var. Dekalb 535, CORN); assay: Post-emerge test, crop safety; conditions: phytotoxicity rating 0-100 (0 no damage, 100 complete death), 14 days after application
In short: as §1

[3] = tested on: redroot pigweed (Amaranthus retroflexus, AMARE); assay: Pre-emerge test, greenhouse herbicide activity screening; conditions: pre-emerge, rated 14 days after application, 0 = no damage, 100 = complete death
In short: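 Herbicidal damage is scored 0 (none) to 100 (complete plant death) two weeks after a simulated field spray. Rates span 15–1000 g ai/ha, delivered in acetone at 187 l/ha. For post-emergence treatments, plants have 2–3 leaves and the spray carries 0.25% v/v non-ionic surfactant.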

[4] = tested on: green foxtail (Setaria viridis, SETVI); assay: Post-emerge test, greenhouse herbicide activity screening; conditions: phytotoxicity rating 0-100 (0 no damage, 100 complete death), 14 days after application
In short: as §1

[5] = tested on: large crabgrass (Digitaria sanguinalis, DIGSA); assay: as above; conditions: phytotoxicity rating 0-100 (0 no damage, 100 complete death), 14 days after application
In short: as §1

[6] = tested on: barnyardgrass (Echinochloa crus-galli, ECHCG); assay: as above; conditions: phytotoxicity rating 0-100 (0 no damage, 100 complete death), 14 days after application
In short: as §1

[7] = tested on: ivyleaf morningglory (Ipomoea hederacea, IPOHE); assay: as above; conditions: phytotoxicity rating 0-100 (0 no damage, 100 complete death), 14 days after application
In short: as §1

[8] = tested on: johnsongrass (Sorghum halepense, SORHA); assay: as above; conditions: phytotoxicity rating 0-100 (0 no damage, 100 complete death), 14 days after application
In short: as §1

[9] = tested on: lambsquarters (Chenopodium album, CHEAL); assay: as above; conditions: phytotoxicity rating 0-100 (0 no damage, 100 complete death), 14 days after application
In short: as §1

[10] = tested on: velvetleaf (Abutilon theophrasti, ABUTH); assay: as above; conditions: 63 g ai/ha; phytotoxicity rating 0-100 (0 no damage, 100 complete death), 14 days after application
In short: as §1

[11] = tested on: sicklepod (Cassia obtusifolia, CASOB); assay: as above; conditions: phytotoxicity rating 0-100 (0 no damage, 100 complete death), 14 days after application
In short: as §1

[12] = tested on: redroot pigweed (Amaranthus retroflexus, AMARE); assay: as above; conditions: phytotoxicity rating 0-100 (0 no damage, 100 complete death), 14 days after application
In short: as §1

[13] = tested on: common ragweed (Ambrosia artemisizfolia L., AMBEL); assay: as above; conditions: phytotoxicity rating 0-100 (0 no damage, 100 complete death), 14 days after application
In short: as §1

[14] = tested on: green foxtail (Setaria viridis, SETVI); assay: Pre-emerge test, greenhouse herbicide activity screening; conditions: pre-emerge, rated 14 days after application, 0 = no damage, 100 = complete death
In short: as §1

[15] = tested on: large crabgrass (Digitaria sanguinalis, DIGSA); assay: as above; conditions: pre-emerge, rated 14 days after application, 0 = no damage, 100 = complete death
In short: as §1

[16] = tested on: barnyardgrass (Echinochloa crus-galli, ECHCG); assay: as above; conditions: pre-emerge, rated 14 days after application, 0 = no damage, 100 = complete death
In short: as §1

[17] = tested on: ivyleaf morningglory (Ipomoea hederacea, IPOHE); assay: as above; conditions: pre-emerge, rated 14 days after application, 0 = no damage, 100 = complete death
In short: as §1

[18] = tested on: johnsongrass (Sorghum halepense, SORHA); assay: as above; conditions: pre-emerge, rated 14 days after application, 0 = no damage, 100 = complete death
In short: as §1

[19] = tested on: lambsquarters (Chenopodium album, CHEAL); assay: as above; conditions: pre-emerge, rated 14 days after application, 0 = no damage, 100 = complete death
In short: as §1

[20] = tested on: velvetleaf (Abutilon theophrasti, ABUTH); assay: as above; conditions: pre-emerge, rated 14 days after application, 0 = no damage, 100 = complete death
In short: as §1

[21] = tested on: sicklepod (Cassia obtusifolia, CASOB); assay: as above; conditions: pre-emerge, rated 14 days after application, 0 = no damage, 100 = complete death
In short: as §1

[22] = tested on: common ragweed (Ambrosia artemisizfolia L., AMBEL); assay: as above; conditions: pre-emerge, rated 14 days after application, 0 = no damage, 100 = complete death
In short: as §1

[23] = tested on: upland rice (Oryza sp., var. Tebonnet, RICE); assay: Pre-emerge test, crop safety; conditions: pre-emerge, rated 14 days after application, 0 = no damage, 100 = complete death
In short: (§2)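 Sandy loam pots; pre-emerge: sown 1 d pre-spray, surface-watered after, then bottom-watered. Post-emerge: sown 8–21 d before, 2–3 leaf stage, + 0.25% v/v NIS, bottom-watered. Acetone, 187 l/ha track spray, 15–1000 g ai/ha. 0–100 injury score, day 14.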

[24] = tested on: field corn (Zea mays L., var. Dekalb 535, CORN); assay: Pre-emerge test, crop safety; conditions: pre-emerge, rated 14 days after application, 0 = no damage, 100 = complete death
In short: as §2

COc1c(Cl)cc(F)c(-n2c(=O)cc(C(F)(F)F)n(C)c2=O)c1N1CCCC1 [Compound 1-32]
Post-emerge Herbicidal Activity RICE (crop damage) ([1]; 63 g ai/ha): 0
Post-emerge Herbicidal Activity RICE (crop damage) ([1]; 250 g ai/ha): 0
Post-emerge Herbicidal Activity CORN (crop damage) ([2]; 63 g ai/ha): 0
Post-emerge Herbicidal Activity CORN (crop damage) ([2]; 250 g ai/ha): 0
Pre-emerge Herbicidal Activity AMARE (phytotoxicity rating, scale 0-100) ([3]; 63 g ai/ha): 0
Pre-emerge Herbicidal Activity AMARE (phytotoxicity rating, scale 0-100) ([3]; 250 g ai/ha): 100
Post-emerge Herbicidal Activity SETVI ([4]; 63 g ai/ha): 0
Post-emerge Herbicidal Activity SETVI ([4]; 250 g ai/ha): 0
Post-emerge Herbicidal Activity DIGSA ([5]; 63 g ai/ha): 0
Post-emerge Herbicidal Activity DIGSA ([5]; 250 g ai/ha): 0
Post-emerge Herbicidal Activity ECHCG ([6]; 63 g ai/ha): 0
Post-emerge Herbicidal Activity ECHCG ([6]; 250 g ai/ha): 0
Post-emerge Herbicidal Activity IPOHE ([7]; 63 g ai/ha): 0
Post-emerge Herbicidal Activity IPOHE ([7]; 250 g ai/ha): 70
Post-emerge Herbicidal Activity SORHA ([8]; 63 g ai/ha): 0
Post-emerge Herbicidal Activity SORHA ([8]; 250 g ai/ha): 0
Post-emerge Herbicidal Activity CHEAL ([9]; 63 g ai/ha): 0
Post-emerge Herbicidal Activity CHEAL ([9]; 250 g ai/ha): 60
Post-emerge Herbicidal Activity ABUTH [10]: 30
Post-emerge Herbicidal Activity CASOB ([11]; 63 g ai/ha): 0
Post-emerge Herbicidal Activity CASOB ([11]; 250 g ai/ha): 0
Post-emerge Herbicidal Activity AMARE ([12]; 63 g ai/ha): 10
Post-emerge Herbicidal Activity AMARE ([12]; 250 g ai/ha): 30
Post-emerge Herbicidal Activity AMBEL ([13]; 63 g ai/ha): 0
Post-emerge Herbicidal Activity AMBEL ([13]; 250 g ai/ha): 30
Pre-emerge Herbicidal Activity SETVI (phytotoxicity rating, scale 0-100) ([14]; 63 g ai/ha): 0
Pre-emerge Herbicidal Activity SETVI (phytotoxicity rating, scale 0-100) ([14]; 250 g ai/ha): 100
Pre-emerge Herbicidal Activity DIGSA (phytotoxicity rating, scale 0-100) ([15]; 63 g ai/ha): 0
Pre-emerge Herbicidal Activity DIGSA (phytotoxicity rating, scale 0-100) ([15]; 250 g ai/ha): 100
Pre-emerge Herbicidal Activity ECHCG (phytotoxicity rating, scale 0-100) ([16]; 63 g ai/ha): 0
Pre-emerge Herbicidal Activity ECHCG (phytotoxicity rating, scale 0-100) ([16]; 250 g ai/ha): 95
Pre-emerge Herbicidal Activity IPOHE (phytotoxicity rating, scale 0-100) ([17]; 63 g ai/ha): 0
Pre-emerge Herbicidal Activity IPOHE (phytotoxicity rating, scale 0-100) ([17]; 250 g ai/ha): 50
Pre-emerge Herbicidal Activity SORHA (phytotoxicity rating, scale 0-100) ([18]; 63 g ai/ha): 0
Pre-emerge Herbicidal Activity SORHA (phytotoxicity rating, scale 0-100) ([18]; 250 g ai/ha): 30
Pre-emerge Herbicidal Activity CHEAL (phytotoxicity rating, scale 0-100) ([19]; 63 g ai/ha): 90
Pre-emerge Herbicidal Activity CHEAL (phytotoxicity rating, scale 0-100) ([19]; 250 g ai/ha): 100
Pre-emerge Herbicidal Activity ABUTH (phytotoxicity rating, scale 0-100) ([20]; 63 g ai/ha): 90
Pre-emerge Herbicidal Activity ABUTH (phytotoxicity rating, scale 0-100) ([20]; 250 g ai/ha): 100
Pre-emerge Herbicidal Activity CASOB (phytotoxicity rating, scale 0-100) ([21]; 63 g ai/ha): 40
Pre-emerge Herbicidal Activity CASOB (phytotoxicity rating, scale 0-100) ([21]; 250 g ai/ha): 40
Pre-emerge Herbicidal Activity AMBEL (phytotoxicity rating, scale 0-100) ([22]; 63 g ai/ha): 0
Pre-emerge Herbicidal Activity AMBEL (phytotoxicity rating, scale 0-100) ([22]; 250 g ai/ha): 50
Pre-emerge crop damage RICE (phytotoxicity rating, scale 0-100) ([23]; 63 g ai/ha): 20
Pre-emerge crop damage RICE (phytotoxicity rating, scale 0-100) ([23]; 250 g ai/ha): 40
Pre-emerge crop damage CORN (phytotoxicity rating, scale 0-100) ([24]; 63 g ai/ha): 0
Pre-emerge crop damage CORN (phytotoxicity rating, scale 0-100) ([24]; 250 g ai/ha): 0

Source: US6355799B1, “Substituted benzene compounds, process for their preparation, and herbicidal and defoliant compositions containing them” (ISK Americas Incorporated, priority 1997, dated 2002)
